Assay [1] deals with stable HCV 1b RLuc replicon cells (genotype 1b Con1 replicon). As to the kind of experiment: HCV genotype 1b RLuc replicon reporter assay. Type of assay: cell-based. The conditions noted are these: Hepatitis C virus; stable genotype 1b Con1 RLuc replicon cells, 72 hours. The method, then:
(§1) Evaluation of cell-based anti-HCV activity: Antiviral potency (EC50) was determined using a Renilla luciferase (RLuc)-based HCV replicon reporter assay. To perform the assay for genotype 1 and 2a JFH-1, stable HCV 1a RLuc replicon cells (harboring a dicistronic genotype 1a H77 replicon that encodes a RLuc reporter), stable HCV lb RLuc replicon cells (harboring a dicistronic genotype 1b Conl replicon that encodes a RLuc reporter), or stable HCV 2a JFH-1 Rluc replicon cells (harboring a dicistronic genotype 2a JFH-1 replicon that encodes a RLuc reporter; with L31 present in NS5A) were dispensed into 384-well plates for EC50 assays. To perform the assay for genotype 2a (with M31 present in NS5A) or 2b, NS5A chimeric genotype 2a JFH-1 replicons that encodes a RLuc-Neo reporter and either genotype 2a J6 strain NS5A gene or genotype 2b MD2b-1 strain NS5A gene (both with M31 present) respectively, were either transiently transfected (t) into Huh-Lunet cells or were established as stably replicating replicon cells (s) is provided. Either cells were dispensed into 384-well plates for EC50 assays. To perform the assay for genotype 3 and 4, NS5A chimeric genotype 1b Conl replicons that encodes a Pi-RLuc reporter and either genotype 3a S52 strain NS5A gene or genotype 4a ED43 strain NS5A gene respectively, were transiently transfected (t) into Huh-Lunet cells, which were subsequently dispensed into 384-well plates. Compounds were dissolved in DMSO at a concentration of 10 mM and diluted in DMSO either manually or using an automated pipeting instrument. Serially 3-fold diluted compounds were either manually mixed with cell culture media and added to the seeded cells or directly added to the cells using an automated instrument. DMSO was used as a negative (solvent; no inhibition) control, and the protease inhibitor ITMN-191 was included at a concentration >100×EC50 as a positive control. 72 hours later, cells were lysed and Renilla luciferase activity quantified as recommended by the manufacturer (Promega-Madison, Wis.). Non-linear regression was performed to calculate EC50 values.

Assay [2] has as its system stable HCV 1a RLuc replicon cells (genotype 1a H77 replicon). As to the kind of experiment: HCV genotype 1a RLuc replicon reporter assay. The conditions noted are these: Hepatitis C virus; stable genotype 1a H77 RLuc replicon cells, 72 hours. The class given is cell-based. The method, then:
as §1
(In antiviral work, replicon cells carry a viral genome segment that copies itself.)

Assay [3] concerns stable HCV 2a JFH-1 Rluc replicon cells (L31 present in NS5A). The assay can be described thus: HCV genotype 2a JFH-1 RLuc replicon reporter assay. Type of assay: cell-based. The following applies: Hepatitis C virus, 72 h, read-out: 2a JFH (nM). How it is done: as §1
In assay [4] the test system is NS5A chimeric genotype 2a JFH-1 replicon with genotype 2b MD2b-1 strain NS5A gene (M31). As to the kind of experiment: HCV genotype 2b NS5A chimeric replicon assay, stable (s). The class given is cell-based. The following applies: Hepatitis C virus, 72 h, read-out: 2b (s) (nM). How it is done:
as §1

Assay [5] relates to NS5A chimeric genotype 1b Con1 replicon with genotype 3a S52 strain NS5A gene. As to the kind of experiment: HCV genotype 3a NS5A chimeric replicon assay. Type of assay: cell-based. The conditions noted are these: Hepatitis C virus, 72 h, read-out: 3a (nM). The method, then: as §1
In assay [6] the test system is NS5A chimeric genotype 1b Con1 replicon with genotype 4a ED43 strain NS5A gene. The assay can be described thus: HCV genotype 4a NS5A chimeric replicon assay. Type of assay: cell-based. The following applies: Hepatitis C virus, 72 h, read-out: 4a (s) (nM). How it is done:
as §1, with “[…],” for “were transiently transfected (t) into Huh-Lunet cells,”

In assay [7] the test system is Y93H in genotype 1a NS5A replicon. The assay can be described thus: Resistance mutant replicon assay, genotype 1a NS5A Y93H. The conditions noted are these: Hepatitis C virus, read-out: 1a Y93H (nM). Type of assay: cell-based, HCV. How it is done:
as §1
(§2) To determine the antiviral potency (EC50) against resistance mutants, resistance mutations, including M28T, Q30R, Q30H, Q30E, L31M, Y93C, Y93H, and Y93N in genotype 1a NS5A, Y93H and L31V/Y93H in genotype 1b NS5A, and Y93H for in genotype 3a NS5A, were introduced individually into either 1a Pi-Rluc or 1b Pi-Rluc replicons by site directed mutagenesis. Replicon RNA of each resistant mutant was transiently transfected into Huh-7-derived cured-51 cells and antiviral potency was determined on these transfected cells as described above.

The test system of assay [8] is Y93N in genotype 1a NS5A replicon. As to the kind of experiment: Resistance mutant replicon assay, genotype 1a NS5A Y93N. The class given is cell-based, HCV. The conditions noted are these: Hepatitis C virus, read-out: 1a Y93N (nM). The method, then:
as §1, §2

For assay [9], the system named is Y93H in genotype 3a NS5A replicon. The assay can be described thus: Resistance mutant replicon assay, genotype 3a NS5A Y93H. The class given is cell-based, HCV. The conditions noted are these: Hepatitis C virus, read-out: 3a Y93H (nM). How it is done:
as §1, §2

Assay [10] relates to NS5A chimeric genotype 2a JFH-1 replicon with genotype 2a J6 strain NS5A gene (M31). As to the kind of experiment: HCV genotype 2a J6 NS5A chimeric replicon assay, transient (t). Type of assay: cell-based. The following applies: Hepatitis C virus, 72 h, read-out: 2a J6 (t) (nM). The method, then: as §1

For 5 compounds, EC50 results are on record in patent publication US20160362416A1, “ANTIVIRAL COMPOUNDS” (Gilead Sciences, Inc., priority 2012, published 2016).

The structures appear in SMILES notation. pEC50: −log10 of the molar value.

For orientation: pEC50 means −log10 of the EC50, conventionally taken in molar units. A high value points to a small EC50. For the compound `CC[C@H](C)[C@H](NC(=O)OC)C(=O)N1[C@@H](C)CC[C@H]1c1ncc(-c2ccc3c(c2)COc2cc4c(cc2-3)CCc2nc([C@@H]3CC[C@H](C)N3C(=O)[C@@H](NC(=O)OC)C3C[C@@H](C)O[C@H](C)C3)[nH]c2-4)[nH]1` (stereo partly drawn) [Example BE, methyl{(2S,3S)-1-[(2S,5S)-2-(5-{2-[(2S,5S)-1-{(2S)-2-[(2R,6R)-2,6-dimethyltetrahydro-2H-pyran-4-yl]-2-[(methoxycarbonyl)amino]acetyl}-5-methylpyrrolidin-2-yl]-1,4,5,11-tetrahydroisochromeno[4′,3′:6,7]naphtho[1,2-d]imidazol-9-yl}-1H-imidazol-2-yl)-5-methylpyrrolidin-1-yl]-3-methyl-1-oxopentan-2-yl}carbamate], the results for the pEC50 in assay [1] and in [2] were 10.72 and 10.77, respectively. In addition, the EC50 was 0.011 nM in [3]; 0.029 nM in assay [4]; 0.022 nM in assay [5]; 0.011 nM in [6]; 0.755 nM in assay [7]; 1.42 nM in assay [8]. Further, in assay [9], the EC50 worked out at 2.25 nM.

With `COC(=O)N[C@H](C(=O)N1[C@@H](c2ncc(-c3ccc4c(c3)COc3cc5c(ccc6nc([C@@H]7C[C@H](C)[C@H](C)N7C(=O)[C@@H](NC(=O)OC)C7C[C@@H](C)O[C@H](C)C7)[nH]c65)cc3-4)[nH]2)C[C@@H](C)[C@H]1C)C1C[C@@H](C)O[C@H](C)C1` (stereo partly drawn) [Example BB, Methyl {(1S)-1-[(2R,6R)-2,6-dimethyltetrahydro-2H-pyran-4-yl]-2-[(2R,3R,5R)-5-(5-{2-[(2S,4S,5S)-1-{(2S)-2-[(2R,6R)-2,6-dimethyltetrahydro-2H-pyran-4-yl]-2-[(methoxycarbonyl)amino]acetyl}-4,5-dimethylpyrrolidin-2-yl]-1,11-dihydroisochromeno[4′,3′:6,7]naphtho[1,2-d]imidazol-9-yl}-1H-imidazol-2-yl)-2,3-dimethylpyrrolidin-1-yl]-2-oxoethyl}carbamate], the pEC50 is 9.69 in assay [1] and 8.41 in [2]. Also, the EC50 was 2.96 nM in [3]; 10.6 nM in assay [4]; 10.3 nM in assay [5]; 2.54 nM in [6]; 20.2 nM in assay [7]; 29.6 nM in assay [8].

For the compound `COC(=O)N[C@H](C(=O)N1[C@@H](C)CC[C@H]1c1nc2ccc3cc4c(cc3c2[nH]1)OCc1cc(-c2cnc([C@@H]3CC[C@H](C)N3C(=O)[C@H](NC(=O)OC)[C@H]3C[C@@H](C)O[C@@H](C)C3)[nH]2)ccc1-4)C(C)C` [Example AP, Methyl {(2S)-1-[(2S,5S)-2-(9-{2-[(2S,5S)-1-{(2R)-2-[(2R,6S)-2,6-dimethyltetrahydro-2H-pyran-4-yl]-2-[(methoxycarbonyl)amino]acetyl}-5-methylpyrrolidin-2-yl]-1H-imidazol-5-yl}-1,11-dihydroisochromeno[4′,3′:6,7]naphtho[1,2-d]imidazol-2-yl)-5-methylpyrrolidin-1-yl]-3-methyl-1-oxobutan-2-yl}carbamate], the pEC50 is 10.42 in [1] and 8.82 in [2]. The EC50 in [3] is 1.1 nM; in assay [10], 4.44 nM; in assay [4] it was 4.44 nM; in assay [5], 4.44 nM; in [6] it was 1.19 nM.

Consider `CC[C@H]1CC[C@@H](c2nc3ccc4cc5c(cc4c3[nH]2)OCc2cc(-c3cnc([C@@H]4CC[C@H](C)N4C(=O)[C@@H](NC(=O)OC)C(C)C)[nH]3)ccc2-5)N1C(=O)[C@@H](NC(=O)OC)[C@@H]1CCCOC1` [Example AH, Methyl{(1S)-2-[(2S,5S)-2-ethyl-5-(9-{2-[(2S,5S)-1-{(2S)-2-[(methoxycarbonyl)amino]-3-methylbutanoyl}-5-methylpyrrolidin-2-yl]-1H-imidazol-5-yl}-1,11-dihydroisochromeno[4′,3′:6,7]naphtho[1,2-d]imidazol-2-yl)pyrrolidin-1-yl]-2-oxo-1-[(3S)-tetrahydro-2H-pyran-3-yl]ethyl}carbamate], for which the values for the pEC50 in [1] and in assay [2] were 10.68 and 10.59, respectively. Moreover, the EC50 in assay [3] came out at 0.031 nM; in assay [10], 0.172 nM; in assay [4], 0.104 nM; in assay [5] it was 0.154 nM; in assay [6], 0.017 nM.

Consider `COC(=O)N[C@H](C(=O)N1[C@@H](C)CC[C@H]1c1ncc(-c2ccc3c(c2)COc2cc4c(ccc5nc([C@@H]6CC[C@H](C)N6C(=O)[C@@H](NC(=O)OC)C6(C)CCOCC6)[nH]c54)cc2-3)[nH]1)C(C)C` [Example AD, Methyl [(2S)-1-{(2S,5S)-2-[5-(2-{(2S,5S)-1-[(2S)-2-[(methoxycarbonyl)amino]-2-(4-methyltetrahydro-2H-pyran-4-yl)acetyl]-5-methylpyrrolidin-2-yl}-1,11-dihydroisochromeno[4′,3′:6,7]naphtho[1,2-d]imidazol-9-yl)-1H-imidazol-2-yl]-5-methylpyrrolidin-1-yl}-3-methyl-1-oxobutan-2-yl]carbamate], for which the negative-log EC50 (pEC50) is 10.51 in assay [1] and 10.68 in assay [2]. The EC50 in assay [3] came to 0.027 nM; in assay [10], 1.02 nM; in [4], 0.351 nM; in [5] it was 0.074 nM; in [6], 0.018 nM.
